Here are results for 3 compounds from patent publication US20240130988A1, “Use of stilbene compounds in the preparation of anti-tumor drugs” (Guangzhou AnHao Pharmaceutical Technology CO., LTD., priority 2022, published 2024).

Marks after values point to notes of the source that are not given here.

Test [1] has as its system LLC (mouse lung cancer cells). Put plainly: Enrichment of CD8+ cytotoxic T lymphocytes in tumor tissue, Lewis non-small cell lung cancer model of mice. Format: in vivo. Conditions: 400 mg/kg ip once a day for 10 days, flow cytometry. On the procedure:
LLC (mouse lung cancer cells) were a mouse Lewis lung cancer cells.
The modeling method for LLC cell lung cancer in mice was as follows:
LLC cells were cultured in the general medium containing 10% fetal bovine serum and 100 μg/mL of double antibody (penicillin±streptomycin), and then cultivated in a 37° C., 5% CO2 cell incubator for routine incubation. LLC cells, that had grown to logarithmic phase, were digested with 0.25% trypsin (containing EDTA) to form a cell suspension, which was centrifuged at 1000 rpm/min for 3 min. The supernatant was discarded, and cell precipitates were collected, that were resuspended in culture medium without serum and double antibody. The cell suspension was further centrifuged to adjust the volume under the same conditions with the aid of cell counting, so as to prepare a cell suspension at a concentration of […] was injected into the right abdomen of each mouse, to complete the inoculation of tumor cells. The tumor was allowed to grew about 10 days, and the volume reached around 100 mm^3, before the mice were treated with test compounds.
Drug preparation: compounds 1-13 of the present invention were respective prepared into an injection with injection water.
Experimental methods: The model mice with LLC cell lung cancer were treated by intraperitoneal administration of 400 mg/kg injection containing the compound of the present invention. The model mice were divided into a negative control group (model mice only receiving equal volume of injection water by intraperitoneal administration) and treatment groups (model mice receiving the injection prepared with the compound of the present invention by intraperitoneal administration). The intraperitoneal injection regimen was carried out by injecting once a day at the pre-determined time. Before administration, the mice were weighed, and then treated with the injection at a dosage of 10 mL/kg, After successive administration for 10 days, that is, on the 10th day after receiving treatment, the mice were sacrificed, and the subcutaneous tumors were stripped to detect the ratio of cytotoxic T lymphocyte antigen CD8^+ in tumor tissues of the negative group and the treatment group by flow cytometry.
CD8^+ tumor-infiltrating lymphocytes in tumor tissues were detected by flow cytometry. The specific steps were as follows:
The mice were sacrificed, and then the abdominal epidermis of the mice was cut open using ophthalmic scissors, to fully expose the subcutaneous tumors. The subcutaneous tumor tissues on the right side of the mouse's abdomen were gradually peeled off with tweezers and ophthalmic scissors. After rinsing with PBS, the stripped tumor tissues were cut into about 1 mm using ophthalmic scissors, and then placed in 3 mL of PBS buffer containing 100 μg/mL of hyaluronidase. A centrifuge tube containing a dispersed liquid was placed in a water bath and kept at 37° C. for 20 min. A pipette was used to blow and shake the digestive tumor tissues every 5 minutes to fully digest. The dispersed liquid containing undigested tumor tissues was filtered through a 70 μm stainless steel cell screen, and the remaining undigested tumor tissues were ground using a push rod of 20 mL syringe on 70 μm cell screen and rinsed 5 times with 1 mL of PBS while grinding. The cell suspension passing the cell screen was transferred to a 15 mL centrifuge tube, and centrifuged at 4000 rpm for 3 min. Then, cell precipitates were collected, to which was added 2 mL of red cell lysis buffer, and rested for 10 min, followed by centrifuging at 4000 rpm for 3 min. After washing with PBS, the cells were resuspended by adding 2-3 mL of PBS.
An appropriate amount of cell suspension was used as the sample for flow cytometry, and after counting, the cell suspension was adjusted to have a concentration of 5×10^6/mL. 100 μL of cell suspension was added to a test tube with a pipettor. […]
(In flow cytometry, cells or beads pass a laser one at a time.)

Test [2] has as its system human liver cancer QGY7703. Put plainly: Human liver cancer QGY7703 transplanted tumor in nude mice. Conditions: QGY7703, 100 mg/kg iv × 14; for inhibition in vivo at 100 mg/kg: Mus musculus, QGY-7703, read-out: Tumor inhibitory rate %. Set-up: key to RTV (d 18): RTV = Vt/Vo, tumor volume relative to volume at grouping (d1). The format is in vivo, BALB/C nude mice. The procedure:
A human liver cancer QGY7703 model transplanted into nude mice was used in the experiment to investigate the anti-tumor effect of test compounds. The mice were intravenously injected at a dosage of 100 mg/kg for 14 days, and the tumor inhibition rate against human liver cancer QGY7703 was measured.
(§1) Preparation: The compound was prepared as the injection at the desired concentration with sterile normal saline, prior to administration.
Animal strain: BALB/C nude mice (SPF grade), weight: 19-21 g, gender: male. Number of animals in each treatment group: 8; number of animals in the control group: >12.
The tumor blocks of human liver cancer QGY7703 with good growth were cut into uniform small pieces of 3 mm under sterile conditions, and then subcutaneously inoculated into the right armpit of each mouse with a cannula. These mice were divided into 9 groups, 8 mice for each treatment group, while more than 12 mice were included in the control group.
(§2) 14 days after inoculation, the average volume of the tumor block was about 100 mm^3. The animals were regrouped based on the size of the tumor, and the animals with tumors that were too large and too small were sifted out. For each group, the average volume of tumors was basically the same, and then the mice were initially treated with test compounds. The mice in the treatment groups were intravenously injected once a day for 14 days, at a dosage of 0.1 mL/20 g body weight; the mice in the control group were given the same volume of sterile normal saline. From the 14th day of inoculation, the long diameter a (mm) of the tumor, together with the perpendicular short diameter b (mm), was measured using a digital electronic caliper, twice a week. The calculation formula of tumor volume is: TV=ab^2/2, and the formula for calculating the relative tumor volume is RTV=Vt/Vo, wherein Vo denotes the tumor volume measured when the mice were divided into groups (i.e. d1), and Vt is the tumor volume from each measurement.
(§3) The result determination is based on the following formula: […]

The test system of test [3] is nonfusion human umbilical vein endothelial cells (HUVEC). Put plainly: TMT quantitative proteomics on nonfusion HUVEC. The format is cell-based. Conditions: 10 μM; for Differentially expressed proteins: more than 1.5 times or less than 0.67 times vs control; for Down-regulation / Up-regulation: number of proteins. On the procedure: Nonfusion human umbilical vein endothelial cells (HUVEC) were used to simulate new tumor blood vessels, while confluent HUVECs were used to simulate normal blood vessels, to construct experimental models. Two different HUVECs were treated with the compound at the same dosage of 10 μM, to simulate the fusion cell state, and proteome samples were prepared. After preparation of peptide segments, the segments were labelled with TMT, and a quantitative proteomics analysis was carried out. The efficiency of TMT labeling was higher than 99.4%, and a total of 28372 peptide segments from 4934 proteins were characterized using a strict 1% FDR limit. Among them, 4909 quantifiable proteins were identified, indicating reliable quality. The nonfusion treatment groups and the fusion treatment groups were compared with their respective control groups, and the control group was used as a reference, with a significant difference of more than 1.5 times or less than 0.67 times as the protein score standard.
The total cell proteins of the samples in nonfusion cell groups and fusion cell groups were extracted separately, and 2 μg of protein samples were subjected to quality analysis, The quantitative proteomics experiments were carried out, and the protein concentration assay was performed by quantitative grayscale measurement.
Data analysis: The human protein database (Scientific name: Homo sapiens, 9606) was downloaded from UniProt, MaxQuant (v 1.5.5.1) search engine was used to search for the database. A total of 4934 proteins (4909 quantitative proteins) and 28372 peptide segments were identified by TMT quantitative proteomics experiments, with a labeling efficiency of more than 99%, and the complete digestion occupied 86.3%.

The test system of test [4] is LLC (mouse lung cancer cells). Put plainly: Enrichment of CD8+ cytotoxic T lymphocytes in tumor tissue, Lewis non-small cell lung cancer model of mice. The format is in vivo. Conditions: 400 mg/kg ip once a day for 10 days, CD8+ immunohistochemistry.
In test [5] the test system is human lung cancer A549. Put plainly: Human lung cancer A549 transplanted tumors in nude mice. To be noted: A549, 400 mg/kg ig × 14. Format: in vivo, BALB/C nude mice. On the procedure: In this experiment, a human lung cancer A549 model transplanted into nude mice was selected to study the anti-tumor effect of test compounds. The mice were treated at a dosage of 400 mg/kg by gavage for 14 days, and the tumor inhibition rate against human lung cancer A549 was measured.
Preparation: The compound was prepared as the solution at the desired concentration with distilled water, prior to administration.
Animal strain: BALB/C nude mice (SPF grade), weight: 19-21 g, gender: male. Number of animals in each treatment group: 8; Number of animals in the control group: >12.
Lung cancer A549 tumor blocks with good growth were chosen and cut into uniform small pieces of 3 mm under sterile conditions, and then subcutaneously inoculated into the right armpit of each mouse with a cannula. These mice were divided into 9 groups, 8 mice for each treatment group, while more than 12 mice were included in the control group.
14 days after inoculation, the average volume of the tumor mass was about 100 mm^3. The animals were regrouped based on the size of the tumor, and the mice with tumors that were too large and too small were eliminated. For each group, the average volume of tumors was basically the same, and then the mice were treated with test compounds. The mice in the treatment groups were administered once a day by gavage for 14 successive days, at a dosage of 0.5 mL/20 g body weight; the mice in the control group were given the same volume of physiological saline. From the 14th day of inoculation, the long diameter a (mm) of the tumor, together with the perpendicular short diameter b (mm), was measured using a digital electronic caliper, twice a week. The calculation formula of tumor volume is: TV=ab^2/2, and the formula for calculating the relative tumor volume is RTV=Vt/Vo, wherein Vo denotes the tumor volume measured when the mice were divided into groups (i.e. d1), and Vt is the tumor volume from each measurement.
as §3

In test [6] the test system is human gastric cancer MGC803. Put plainly: Human gastric cancer MGC803 transplanted tumor in nude mice. Conditions: MGC803, 200 mg/kg ip × 14. The format is in vivo, BALB/C nude mice. The procedure:
A human gastric cancer MGC803 model transplanted into nude mice was used in the experiment to investigate the anti-tumor effect of test compounds.
as §1
Animal strain: BALB/C nude mice (SPF grade), weight: 19-21 g, gender: male.
Number of animals in each treatment group: 8; number of animals in the control group: >12.
The tumor blocks of human gastric cancer MGC803 with good growth were cut into uniform small pieces of 3 mm under sterile conditions, and then subcutaneously inoculated into the right armpit of each mouse with a cannula. These mice were divided into 9 groups, 8 mice for each treatment group, while more than 12 mice were included in the control group.
as §2, with “mice” for “mice in the treatment groups”, “intraperitoneally” for “intravenously”, “0.2” for “0.1”, “weight.” for “weight; the mice in the control group were given the same volume of sterile normal saline.”, “groups(i.e.” for “groups (i.e.”
as §3

`COc1ccc(/C=C(/C(=O)O)c2cc(OC)c(OC)c(OC)c2)c(O)c1O` [Compound 2, (E)-3-(2,3-dihydroxy-4-methoxyphenyl)-2-(3,4,5-trimethoxylphenyl)acrylic acid]: in test [1] (400 mg/kg), the “The ratio of CD8^+ in total immune cells of tumor tissues (%)” value (“The ratio of CD8^+ … (%)” below) is given as 0.0823 ± 0.0112%. In test [2], the inhibition in vivo at 100 mg/kg was 64.9% and the “RTV (d 18)” value was found to be 4.51 ± 0.58. In test [3], this compound had a Differentially expressed proteins of 298, a Down-regulation of 288 and an Up-regulation of 10. Further, in test [4] (400 mg/kg), the “The ratio of distribution area in tumor tissues (%)” value (from here on “The ratio … in tumor tissues (%)”) came to 7.147 ± 0.7528%.
As for `COc1cc(/C(=C\c2cc(O)c(OC)c(Cl)c2)C(=O)O)cc(OC)c1OC` [Compound 5, (E)-3-(3-chloro-5-hydroxy-4-methoxyphenyl)-2-(3,4,5-trimethoxyphenyl) acrylic acid], the “RTV (d 22)” value in test [5] amounted to 5.73 ± 1.25. The inhibition in vivo at 400 mg/kg in test [5] (Mus musculus, po, read-out: Tumor inhibitory rate %) was 51.2%. Moreover, the “The ratio of CD8^+ … (%)” value in test [1] is on record as 0.0833 ± 0.0107%. In addition, in test [3], the Differentially expressed proteins is listed as 304, the Down-regulation stood at 297 and the Up-regulation is on record as 7. Moreover, the “The ratio … in tumor tissues (%)” value in test [4] was found to be 7.438 ± 0.7610%.
For the compound `COc1cc(/C=C(/C(=O)O)c2cc(OC)c(OC)c(OC)c2)ccc1O` [Compound 7, (E)-3-(4-hydroxy-3-methoxyphenyl)-2-(3,4,5-trimethoxyphenyl)acrylic acid], in test [1], the “The ratio of CD8^+ … (%)” value is 0.0774 ± 0.0115%. In test [2], the inhibition in vivo at 100 mg/kg is 64% and the “RTV (d 18)” value was 4.63 ± 0.75. In test [3], this compound gave a Differentially expressed proteins of 289, a Down-regulation of 281 and an Up-regulation of 8. In addition, in test [6], the “RTV (d 18)” value came out at 4.46 ± 0.62 and the “Tumor inhibitory rate %” value is 61.28^## %. In test [4], the “The ratio … in tumor tissues (%)” value came out at 6.653 ± 0.7791%.
